# In patent US11779019B2, “Composition made from polyol(s) and sterol(s) for use in the agricultural field” (ELICIT PLANT, priority 2017, dated 2023):
# Test system: parsley (Petroselinum crispum)
# Assay: Resistance of parsley to flooding (abiotic) stress after watering with sample solutions
# Assay type: in vivo
# Conditions: potted parsley, watering every three days with 40 ml of 97% water+3% of the sample, observed after 18 days, vs water control
# Protocol: The effectiveness of each combination on the plants tolerance to abiotic stress is analyzed.
# Before the treatment all the leaves of the parsley plants are cut off.
# This abundant watering is intended to mimic a flooding stress.
# Each batch consists of four pots.
# After 18 days the plants are observed, and pictures are taken.
compound,measurement,value
"CC[C@H](CC[C@@H](C)[C@H]1CC[C@H]2[C@@H]3CC=C4C[C@@H](O)CC[C@]4(C)[C@H]3CC[C@]12C)C(C)C [A, beta-sitosterol]",effect on the plants' tolerance to stress (flooding stress),"All the samples, except the beta sitosterol alone (sample A), show a positive effect"
